In PMC11025614 (Pharmacology Research & Perspectives, 2024):

How the values were obtained:
[1] = oral midazolam with fluconazole; cited from earlier work
[2] = cited from earlier work
[3] = Therapeutic drug monitoring of sirolimus trough concentration; assay type: in vivo, human
PopPK modeling = assay type: in vivo, human; conditions: for Vd: female, human, blood, oral

Structure (SMILES)	increase of AUC [1]	increase of C max [1]	variation in apparent oral clearance between patients ([2]; ciclosporin and prednisone coadministered)	apparent oral sirolimus clearance, population mean ([2]; estimated by Wu and coworkers)	sirolimus C min ([3]; 4.5 mg twice daily with fluconazole 400 mg/day)	sirolimus C min ([3]; 9 mg daily with oral fluconazole 400 mg once daily, day 3 after initiation)	sirolimus C min ([3]; after 1 week of 9 mg/day (assumed steady-state), no fluconazole)	sirolimus concentrations ([3]; afterward, during fluconazole, for more than 4 weeks)	mean sirolimus C min ([3]; maintenance dose 9 mg sirolimus/day, before fluconazole)	CL1 (apparent oral clearance, clearance from central compartment) (PopPK modeling; before fluconazole)	CL2 (clearance between central and peripheral compartments) (PopPK modeling; before fluconazole)	V 2 (volume of distribution of peripheral compartment) (PopPK modeling; before fluconazole)	CL1 (apparent oral clearance, clearance from central compartment) (PopPK modeling; during fluconazole)	CL2 (clearance between central and peripheral compartments) (PopPK modeling; during fluconazole)	V 2 (volume of distribution of peripheral compartment) (PopPK modeling; during fluconazole)	Vd (PopPK modeling)	Vd (PopPK modeling; 5 mg/day)
Cc1ncc2n1-c1ccc(Cl)cc1C(c1ccccc1F)=NC2 [midazolam]	270%	130%	–	–	–	–	–	–	–	–	–	–	–	–	–	–	–
CO[C@H]1C[C@@H]2CC[C@@H](C)[C@@](O)(O2)C(=O)C(=O)N2CCCC[C@H]2C(=O)O[C@H]([C@H](C)C[C@@H]2CC[C@@H](O)[C@H](OC)C2)CC(=O)[C@H](C)/C=C(\C)[C@@H](O)[C@@H](OC)C(=O)[C@H](C)C[C@H](C)/C=C/C=C/C=C/1C [sirolimus]	–	–	4.5 fold	12.9 L/h	8.2 ng/mL	4.7 ng/mL	2.9 to 4.2 ng/mL	3.1 to 9.5 ng/mL	3.5 ng/mL	30.7 L/h	253 L/h	305 L	14.1 L/h	8.56 L/h	361 L	81.3 L	33.7 L
